Measurements published in patent US8557842B2 (priority 2010, dated 2013).
“Also recorded” adds a separate entry of the source. Read-outs that look alike come from different tables or passages of the source.

Experiments:
Male C57BL/6 mice = assay: Locomotor ambulatory activity; type: in vivo
Source text: Many, but not all, psychostimulants with potent action at DAT, also stimulate locomotor ambulatory activity in rodents. […] Male C57BL/6 mice were contained in a box equipped with infrared beams, the consecutive interruption of which by horizontal activity by the mouse provided a measure for ambulation.

human DAT = biological target: T1, human DAT (Homo sapiens, UniProt Q01959); assay: Inhibition of [3H]DA uptake in cells expressing cloned human DAT; type: cell-based
T1 construct: expressed in transfected cells; cells as described by Chen et al., J. Neurochem; 2004, 89:853-864
T1 sequence (Q01959 whole entry): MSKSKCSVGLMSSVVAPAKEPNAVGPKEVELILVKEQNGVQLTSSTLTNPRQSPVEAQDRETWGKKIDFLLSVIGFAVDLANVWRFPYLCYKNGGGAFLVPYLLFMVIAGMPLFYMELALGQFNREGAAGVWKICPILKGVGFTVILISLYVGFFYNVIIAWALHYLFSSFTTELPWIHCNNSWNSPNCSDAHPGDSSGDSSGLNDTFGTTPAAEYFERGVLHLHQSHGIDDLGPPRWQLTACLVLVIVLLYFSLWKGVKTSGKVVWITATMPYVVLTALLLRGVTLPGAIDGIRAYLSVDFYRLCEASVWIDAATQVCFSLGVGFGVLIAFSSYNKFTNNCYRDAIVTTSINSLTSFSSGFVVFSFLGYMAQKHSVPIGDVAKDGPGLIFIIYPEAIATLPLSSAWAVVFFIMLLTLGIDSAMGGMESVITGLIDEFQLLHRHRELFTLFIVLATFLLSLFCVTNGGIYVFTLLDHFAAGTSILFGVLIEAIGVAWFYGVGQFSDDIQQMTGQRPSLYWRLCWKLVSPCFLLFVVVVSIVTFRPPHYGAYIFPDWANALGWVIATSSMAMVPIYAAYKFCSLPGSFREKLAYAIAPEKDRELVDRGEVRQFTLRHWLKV

human NET = biological target: T2, human NET (Homo sapiens, UniProt P23975); assay: cell-based
T2 construct: expressed in transfected cells; cells as described by Reith et al., J. Neurosci
T2 sequence (P23975 whole entry): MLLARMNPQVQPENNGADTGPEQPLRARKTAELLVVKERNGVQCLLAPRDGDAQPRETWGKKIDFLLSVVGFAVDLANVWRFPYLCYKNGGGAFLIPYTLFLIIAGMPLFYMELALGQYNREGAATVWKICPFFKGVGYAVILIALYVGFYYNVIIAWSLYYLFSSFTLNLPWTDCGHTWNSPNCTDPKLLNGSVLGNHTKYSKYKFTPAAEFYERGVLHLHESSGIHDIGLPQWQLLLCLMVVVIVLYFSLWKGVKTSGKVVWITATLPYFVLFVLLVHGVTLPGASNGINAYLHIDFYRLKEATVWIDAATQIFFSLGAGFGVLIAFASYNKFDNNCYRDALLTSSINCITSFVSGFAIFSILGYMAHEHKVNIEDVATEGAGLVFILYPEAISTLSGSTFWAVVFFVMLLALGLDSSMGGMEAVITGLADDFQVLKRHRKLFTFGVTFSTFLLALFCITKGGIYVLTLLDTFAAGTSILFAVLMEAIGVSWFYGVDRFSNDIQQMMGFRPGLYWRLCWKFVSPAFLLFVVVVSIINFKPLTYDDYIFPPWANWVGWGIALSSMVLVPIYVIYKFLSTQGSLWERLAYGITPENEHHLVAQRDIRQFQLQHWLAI

human SERT = biological target: T3, human SERT (Homo sapiens, UniProt P31645); assay: cell-based
T3 construct: expressed in transfected cells; cells as described by Eshleman et al., J. Pharmacol. Exp. Ther. 1995, 274:276-283
T3 sequence (P31645 whole entry): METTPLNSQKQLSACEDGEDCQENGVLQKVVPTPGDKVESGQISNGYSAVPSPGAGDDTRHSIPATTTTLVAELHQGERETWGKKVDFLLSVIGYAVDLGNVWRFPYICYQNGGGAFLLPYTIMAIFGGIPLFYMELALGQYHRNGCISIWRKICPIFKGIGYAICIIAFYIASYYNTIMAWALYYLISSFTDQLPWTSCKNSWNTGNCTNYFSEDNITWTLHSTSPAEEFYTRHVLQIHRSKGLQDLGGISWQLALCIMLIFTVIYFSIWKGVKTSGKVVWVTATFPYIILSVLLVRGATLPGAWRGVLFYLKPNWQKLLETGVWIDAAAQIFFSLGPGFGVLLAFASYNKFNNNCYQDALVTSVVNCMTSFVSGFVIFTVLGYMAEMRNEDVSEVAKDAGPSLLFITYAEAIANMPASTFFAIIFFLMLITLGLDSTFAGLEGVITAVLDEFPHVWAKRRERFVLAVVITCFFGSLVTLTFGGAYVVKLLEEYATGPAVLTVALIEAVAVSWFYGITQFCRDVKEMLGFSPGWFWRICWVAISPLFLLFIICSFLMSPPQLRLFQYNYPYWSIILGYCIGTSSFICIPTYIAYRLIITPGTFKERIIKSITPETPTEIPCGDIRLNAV

adult male C57BL/6 mice = assay: Forced swim test model of antidepressant-like activity; type: in vivo; details: vs saline
Method: Data are mean ±SEM (vertical bar). ***P<0.001, n=7-9 (One-way ANOVA and Bonferroni post-hoc tests).
The Forced Swim Test (FST) is a rodent model often used to evaluate the anti-depressive effect of therapeutics. Rats swim under conditions in which escape is not possible. On the first day, rats are forced to swim for 15 minutes. The animals are observed to initially struggle to escape from the water. They then adopt a posture of immobility making only movements necessary to keep their heads above water. The rats are retested 24 hours later. The immobility increases. Treatment with standard antidepressant drugs within the 24 hours between the first exposure to forced swimming and retesting can block facilitated immobility, an effect which is associated with antidepressant efficacy in humans. See Porsolt et al, (1977) Nature 266:730-732; Detke et al. (1995) Psychopharmacology 121:66-72.
Antidepressant-like activity of compound 11 was tested in the forced swim test model as previously described (Porsolt et al., supra; Castagne et al. (2011) Curr Protoc Neurosci 55: Unit 8.10A). Briefly, adult male C57BL/6 mice (N=7-9/group) were placed into individual glass cylinders containing clean 25° C. (±1° C.) water, 15 cm deep for 15 minutes. Mice were removed, dried and returned to their home cages. A second 6-minute swim test was given 24 hours after the first. Saline (3 ml/kg, i.p.), Compound 11 (30 mg/kg, i.p.) or desipramine (10 mg/kg, i.p.; a well-known antidepressant, used as a positive control) were administered […], 5 hours, and 1 hour before the second swim test (i.e., 30 minutes, 19 hours and 23 hours after the first swim). Test sessions were video recorded. Behavior during the 6-minute swim test was scored from the videotapes. The cumulative amount of time that the mouse was immobile in the water during the last 4 minutes of the test was measured, as was the latency for the mouse to show the first bout of immobility behavior. Immobility was defined as the mouse performing no movements except those necessary to keep the head above the water (e.g., no swimming or climbing behaviors). […] Immobility scores were analyzed by a one-way ANOVA, followed by the Bonferroni post-hoc analysis.

[1] = Brain uptake: brain and plasma levels by mass spectrometry; details: for concentration at 5 min / concentration at 30 min: male, CD-1, mouse, intraperitoneal, 30 mg/kg
Method: Data shown are mean±SEM (vertical bar).
Brain and plasma levels of 11 were determined by mass spectrometry.

[2] = 25 mg/kg i.p., reported levels, cited from earlier work
[3] = tested at 10 mg/kg and 30 mg/kg

Row | SMILES | Ki (human DAT) | Ki (human NET) | Ki (human SERT) | Locomotor stimulation (Male C57BL/6 mice; [3]) | further results
1 | COC(=O)C1[C@@H](OC(=O)c2ccccc2)CC2CCC1(C)N2C (stereo partly drawn) [Compound 11, Methyl (1R,2R,3S,5S)-(−)-3-(benzoyloxy)-1,8-dimethyl-8-azabicyclo[3.2.I]octane-2-carboxylate] | 168 ± 23 nM | 488 ± 101 nM | 435 ± 77 nM | – | Locomotor stimulation (Male C57BL/6 mice; 30 mg/kg intraperitoneally): did not stimulate locomotion to levels above those seen with 10 mg/kg of cocaine; Immobility time (adult male C57BL/6 mice; 30 mg/kg i.p., last 4 minutes of the 6-minute swim test): decreased immobility time; also recorded: as effective as the antidepressant desipramine in reducing immobility time; Latency to first episode of immobility (adult male C57BL/6 mice; 30 mg/kg i.p.): increased latency to first episode of immobility; also recorded: significantly increased over saline; concentration at 5 min ([1]; brain): 8600 ± 700 ng/mL; concentration at 30 min ([1]; brain): 3800 ± 200 ng/mL; concentration at 5 min ([1]; plasma): 3300 ± 200 ng/mL; concentration at 30 min ([1]; plasma): 1700 ± 300 ng/mL; Brain penetration ([1]; pharmacokinetic assay, compared with cocaine): occupies the brain as readily as cocaine
2 | CCC[C@@]12CC[C@@H](C[C@H](OC(=O)c3ccccc3)[C@@H]1C(=O)OC)N2C [Compound 11a, Methyl (1R,2R,3S,5S)-(−)-1-propyl-3-(benzoyloxy)-8-methyl-8-azabicyclo[3.2.1]octane-2-carboxylate] | 871 ± 205 nM | 796 ± 195 nM | 2990 nM | locomotor activities below those observed with 10 mg/kg of cocaine | –
3 | CC[C@@]12CC[C@@H](C[C@H](OC(=O)c3ccccc3)[C@@H]1C(=O)OC)N2C [Compound 11b, Methyl (1R,2R,3S,5S)-(−)-1-ethyl-3-(benzoyloxy)-8-methyl-8-azabicyclo[3.2.1]octane-2-carboxylate] | 95.1 ± 17 nM | 598 ± 179 nM | 1110 nM | locomotor activities below those observed with 10 mg/kg of cocaine | –
4 | CCCCC[C@@]12CC[C@@H](C[C@H](OC(=O)c3ccccc3)[C@@H]1C(=O)OC)N2C [Compound 11c, Methyl (1R,2R,3S,5S)-(+)-1-pentyl-3-(benzoyloxy)-8-methyl-8-azabicyclo[3.2.1]octane-2-carboxylate] | 1270 nM | 1600 ± 21 nM | 1890 nM | locomotor activities below those observed with 10 mg/kg of cocaine | –
5 | COC(=O)[C@H]1[C@@H](OC(=O)c2ccccc2)C[C@@H]2CC[C@@]1(c1ccccc1)N2C [Compound 11d, Methyl (1R,2R,3S,5S)-(−)-3-(benzoyloxy)-1-phenyl-8-methyl-8-azabicyclo[3.2.1]octane-2-carboxylate] | 31.9 ± 5.7 nM | 1980 nM | 974 ± 308 nM | locomotor activities below those observed with 10 mg/kg of cocaine | Potency at blocking DAT relative to cocaine (human DAT; versus cocaine): ten-fold more potent than cocaine
6 | COC(=O)[C@H]1[C@@H](OC(=O)c2ccccc2)C[C@@H]2CC[C@H]1N2C [cocaine, methyl-(1R,2R,3S,5S)-3-(benzoyloxy)-8-methyl-8-azabicyclo[3.2.1]octane-2-carboxylate] | – | – | – | – | Locomotor stimulation (Male C57BL/6 mice; 10 mg/kg intraperitoneally): slight elevation above saline; Locomotor stimulation (Male C57BL/6 mice; 30 mg/kg intraperitoneally): pronounced increase; Brain level ([2]; 5 minutes): 6700 ± 1200 ng/mL; Plasma level ([2]; 5 minutes): 1100 ± 100 ng/mL; Brain level ([2]; 30 minutes): 2300 ± 300 ng/mL; Plasma level ([2]; 30 minutes): 400 ± 50 ng/mL
7 | CNCCCN1c2ccccc2CCc2ccccc21 [desipramine, reference compound] | – | – | – | – | Immobility time (adult male C57BL/6 mice; 10 mg/kg i.p.): decreased immobility time; Latency to first episode of immobility (adult male C57BL/6 mice; 10 mg/kg i.p.): increased latency to first episode of immobility
